Tested on: platelets
Assay: Platelet quality, apheresis platelets in 100% plasma, 15 μM S-59, INT-100 (~3.6 J/cm^2) or 340 nm LED 1x/2x/3x (~3.6/7.2/10.8 J/cm^2)
Format: cell-based
Excerpt: Additional units were illuminated with the INT-100 device at ˜3.6 J/cm^2 for comparison or maintained as an untreated control. […] As shown in the following Tables 11-19, for platelet quality parameters, results were generally similar among the controls and INT-100 and 340 nm test samples, except for the 3×340 nm dosage for certain parameters.

Compound: Cc1oc2c(C)c3oc(=O)cc(C)c3cc2c1COCCN [S-59, 3-(2-aminoethoxymethyl)-2,5,9-trimethylfuro[3,2-g]chromen-7-one]
- Adenosine triphosphate (ATP) (340 nm (1x), D3): 4.4 mmole/10^8 platelets
- Glucose (340 nm (1x), D3): 13.49 mmol/L
- LDH (340 nm (1x), D3): 12.1 LDH IU/10^11 platelets
- Lactate (340 nm (1x), D3): 15.17 mmol/L
- Platelet counts (340 nm (1x), D3): 1391 ×10^3 cells/μL
- Platelet lysis (340 nm (1x), D3): 4.90%
- pCO2 at 37° C. (340 nm (1x), D3): 54.4 mmHg
- pH at 37° C. (340 nm (1x), D3): 6.84
- pO2 at 37° C. (340 nm (1x), D3): 11.8 mmHg
- Adenosine triphosphate (ATP) (340 nm (1x), D5): 4.0 mmole/10^8 platelets
- Glucose (340 nm (1x), D5): 10.27 mmol/L
- LDH (340 nm (1x), D5): 12.1 LDH IU/10^11 platelets
- Lactate (340 nm (1x), D5): 19.81 mmol/L
- Platelet counts (340 nm (1x), D5): 1338 ×10^3 cells/μL
- Platelet lysis (340 nm (1x), D5): 4.43%
- pCO2 at 37° C. (340 nm (1x), D5): 35.7 mmHg
- pH at 37° C. (340 nm (1x), D5): 6.70
- pO2 at 37° C. (340 nm (1x), D5): 22.5 mmHg
- Adenosine triphosphate (ATP) (340 nm (1x), D7): 3.7 mmole/10^8 platelets
- Glucose (340 nm (1x), D7): 8.32 mmol/L
- LDH (340 nm (1x), D7): 13.1 LDH IU/10^11 platelets
- Lactate (340 nm (1x), D7): 21.83 mmol/L
- Platelet counts (340 nm (1x), D7): 1391 ×10^3 cells/μL
- Platelet lysis (340 nm (1x), D7): 5.23%
- pCO2 at 37° C. (340 nm (1x), D7): 34.3 mmHg
- pH at 37° C. (340 nm (1x), D7): 6.58
- pO2 at 37° C. (340 nm (1x), D7): 16.6 mmHg
- Glucose (340 nm (1x), Post-UVA): 17.45 mmol/L
- LDH (340 nm (1x), Post-UVA): 11.3 LDH IU/10^11 platelets
- Lactate (340 nm (1x), Post-UVA): 9.05 mmol/L
- Platelet counts (340 nm (1x), Post-UVA): 1366 ×10^3 cells/μL
- Platelet lysis (340 nm (1x), Post-UVA): 4.48%
- pCO2 at 37° C. (340 nm (1x), Post-UVA): 91.9 mmHg
- pH at 37° C. (340 nm (1x), Post-UVA): 6.89
- pO2 at 37° C. (340 nm (1x), Post-UVA): 14.3 mmHg
- Adenosine triphosphate (ATP) (340 nm (1x), Pre-UVA): 4.0 mmole/10^8 platelets
- LDH (340 nm (1x), Pre-UVA): 10.5 LDH IU/10^11 platelets
- Platelet counts (340 nm (1x), Pre-UVA): 1453 ×10^3 cells/μL
- Platelet lysis (340 nm (1x), Pre-UVA): 4.30%
- pCO2 at 37° C. (340 nm (1x), Pre-UVA): 89.6 mmHg
- pH at 37° C. (340 nm (1x), Pre-UVA): 6.90
- pO2 at 37° C. (340 nm (1x), Pre-UVA): 41.8 mmHg
- Adenosine triphosphate (ATP) (340 nm (2x), D3): 4.4 mmole/10^8 platelets
- Glucose (340 nm (2x), D3): 13.63 mmol/L
- LDH (340 nm (2x), D3): 12.1 LDH IU/10^11 platelets
- Lactate (340 nm (2x), D3): 14.55 mmol/L
- Platelet counts (340 nm (2x), D3): 1317 ×10^3 cells/μL
- Platelet lysis (340 nm (2x), D3): 4.59%
- pCO2 at 37° C. (340 nm (2x), D3): 54.5 mmHg
- pH at 37° C. (340 nm (2x), D3): 6.86
- pO2 at 37° C. (340 nm (2x), D3): 14.8 mmHg
- Adenosine triphosphate (ATP) (340 nm (2x), D5): 4.1 mmole/10^8 platelets
- Glucose (340 nm (2x), D5): 10.69 mmol/L
- LDH (340 nm (2x), D5): 13.0 LDH IU/10^11 platelets
- Lactate (340 nm (2x), D5): 19.06 mmol/L
- Platelet counts (340 nm (2x), D5): 1370 ×10^3 cells/μL
- Platelet lysis (340 nm (2x), D5): 4.92%
- pCO2 at 37° C. (340 nm (2x), D5): 37.5 mmHg
- pH at 37° C. (340 nm (2x), D5): 6.72
- pO2 at 37° C. (340 nm (2x), D5): 15.3 mmHg
- Adenosine triphosphate (ATP) (340 nm (2x), D7): 3.7 mmole/10^8 platelets
- Glucose (340 nm (2x), D7): 8.34 mmol/L
- LDH (340 nm (2x), D7): 13.2 LDH IU/10^11 platelets
- Lactate (340 nm (2x), D7): 22.13 mmol/L
- Platelet counts (340 nm (2x), D7): 1376 ×10^3 cells/μL
- Platelet lysis (340 nm (2x), D7): 5.19%
- pCO2 at 37° C. (340 nm (2x), D7): 36.4 mmHg
- pH at 37° C. (340 nm (2x), D7): 6.56
- pO2 at 37° C. (340 nm (2x), D7): 14.1 mmHg
- Glucose (340 nm (2x), Post-UVA): 16.98 mmol/L
- LDH (340 nm (2x), Post-UVA): 12.1 LDH IU/10^11 platelets
- Lactate (340 nm (2x), Post-UVA): 8.77 mmol/L
- Platelet counts (340 nm (2x), Post-UVA): 1301 ×10^3 cells/μL
- Platelet lysis (340 nm (2x), Post-UVA): 4.50%
- pCO2 at 37° C. (340 nm (2x), Post-UVA): 94.1 mmHg
- pH at 37° C. (340 nm (2x), Post-UVA): 6.89
- pO2 at 37° C. (340 nm (2x), Post-UVA): 14.2 mmHg
- Adenosine triphosphate (ATP) (340 nm (2x), Pre-UVA): 3.9 mmole/10^8 platelets
- LDH (340 nm (2x), Pre-UVA): 10.5 LDH IU/10^11 platelets
- Platelet counts (340 nm (2x), Pre-UVA): 1448 ×10^3 cells/μL
- Platelet lysis (340 nm (2x), Pre-UVA): 4.30%
- pCO2 at 37° C. (340 nm (2x), Pre-UVA): 88.5 mmHg
- pH at 37° C. (340 nm (2x), Pre-UVA): 6.90
- pO2 at 37° C. (340 nm (2x), Pre-UVA): 45.9 mmHg
- Adenosine triphosphate (ATP) (340 nm (3x), D3): 3.8 mmole/10^8 platelets
- Glucose (340 nm (3x), D3): 10.87 mmol/L
- LDH (340 nm (3x), D3): 11.6 LDH IU/10^11 platelets
- Lactate (340 nm (3x), D3): 20.42 mmol/L
- Platelet counts (340 nm (3x), D3): 1372 ×10^3 cells/μL
- Platelet lysis (340 nm (3x), D3): 4.78%
- pCO2 at 37° C. (340 nm (3x), D3): 62.5 mmHg
- pH at 37° C. (340 nm (3x), D3): 6.56
- pO2 at 37° C. (340 nm (3x), D3): 27.7 mmHg
- Adenosine triphosphate (ATP) (340 nm (3x), D5): 0.4 mmole/10^8 platelets
- Glucose (340 nm (3x), D5): 1.33 mmol/L
- LDH (340 nm (3x), D5): 16.0 LDH IU/10^11 platelets
- Lactate (340 nm (3x), D5): 36.09 mmol/L
- Platelet counts (340 nm (3x), D5): 1550 ×10^3 cells/μL
- Platelet lysis (340 nm (3x), D5): 6.62%
- pCO2 at 37° C. (340 nm (3x), D5): 13.9 mmHg
- pH at 37° C. (340 nm (3x), D5): 5.57
- pO2 at 37° C. (340 nm (3x), D5): 159.5 mmHg
- Adenosine triphosphate (ATP) (340 nm (3x), D7): −0.1 mmole/10^8 platelets
- Glucose (340 nm (3x), D7): 0.43 mmol/L
- LDH (340 nm (3x), D7): 33.7 LDH IU/10^11 platelets
- Lactate (340 nm (3x), D7): 36.36 mmol/L
- Platelet counts (340 nm (3x), D7): 1474 ×10^3 cells/μL
- Platelet lysis (340 nm (3x), D7): 16.6%
- pCO2 at 37° C. (340 nm (3x), D7): 4.4 mmHg
- pH at 37° C. (340 nm (3x), D7): 5.49
- pO2 at 37° C. (340 nm (3x), D7): 178.6 mmHg
- Glucose (340 nm (3x), Post-UVA): 16.77 mmol/L
- LDH (340 nm (3x), Post-UVA): 12.1 LDH IU/10^11 platelets
- Lactate (340 nm (3x), Post-UVA): 9.48 mmol/L
- Platelet counts (340 nm (3x), Post-UVA): 1322 ×10^3 cells/μL
- Platelet lysis (340 nm (3x), Post-UVA): 4.77%
- pCO2 at 37° C. (340 nm (3x), Post-UVA): 98.1 mmHg
- pH at 37° C. (340 nm (3x), Post-UVA): 6.87
- pO2 at 37° C. (340 nm (3x), Post-UVA): 19.7 mmHg
- Adenosine triphosphate (ATP) (340 nm (3x), Pre-UVA): 3.6 mmole/10^8 platelets
- LDH (340 nm (3x), Pre-UVA): 10.5 LDH IU/10^11 platelets
- Platelet counts (340 nm (3x), Pre-UVA): 1452 ×10^3 cells/μL
- Platelet lysis (340 nm (3x), Pre-UVA): 4.30%
- pCO2 at 37° C. (340 nm (3x), Pre-UVA): 98.2 mmHg
- pH at 37° C. (340 nm (3x), Pre-UVA): 6.87
- pO2 at 37° C. (340 nm (3x), Pre-UVA): 90.9 mmHg
- Adenosine triphosphate (ATP) (INT-100, D3): 4.3 mmole/10^8 platelets
- Glucose (INT-100, D3): 13.11 mmol/L
- LDH (INT-100, D3): 11.9 LDH IU/10^11 platelets
- Lactate (INT-100, D3): 14.71 mmol/L
- Platelet counts (INT-100, D3): 1395 ×10^3 cells/μL
- Platelet lysis (INT-100, D3): 4.69%
- pCO2 at 37° C. (INT-100, D3): 55.8 mmHg
- pH at 37° C. (INT-100, D3): 6.82
- pO2 at 37° C. (INT-100, D3): 18.9 mmHg
- Adenosine triphosphate (ATP) (INT-100, D5): 4.0 mmole/10^8 platelets
- Glucose (INT-100, D5): 10.26 mmol/L
- LDH (INT-100, D5): 11.6 LDH IU/10^11 platelets
- Lactate (INT-100, D5): 20.18 mmol/L
- Platelet counts (INT-100, D5): 1400 ×10^3 cells/μL
- Platelet lysis (INT-100, D5): 4.50%
- pCO2 at 37° C. (INT-100, D5): 36.4 mmHg
- pH at 37° C. (INT-100, D5): 6.67
- pO2 at 37° C. (INT-100, D5): 20.1 mmHg
- Adenosine triphosphate (ATP) (INT-100, D7): 3.5 mmole/10^8 platelets
- Glucose (INT-100, D7): 8.19 mmol/L
- LDH (INT-100, D7): 12.6 LDH IU/10^11 platelets
- Lactate (INT-100, D7): 23.31 mmol/L
- Platelet counts (INT-100, D7): 1439 ×10^3 cells/μL
- Platelet lysis (INT-100, D7): 5.18%
- pCO2 at 37° C. (INT-100, D7): 35.0 mmHg
- pH at 37° C. (INT-100, D7): 6.54
- pO2 at 37° C. (INT-100, D7): 19.7 mmHg
- Glucose (INT-100, Post-UVA): 17.24 mmol/L
- LDH (INT-100, Post-UVA): 11.5 LDH IU/10^11 platelets
- Lactate (INT-100, Post-UVA): 8.85 mmol/L
- Platelet counts (INT-100, Post-UVA): 1415 ×10^3 cells/μL
- Platelet lysis (INT-100, Post-UVA): 4.74%
- pCO2 at 37° C. (INT-100, Post-UVA): 91.4 mmHg
- pH at 37° C. (INT-100, Post-UVA): 6.89
- pO2 at 37° C. (INT-100, Post-UVA): 36.4 mmHg
- Adenosine triphosphate (ATP) (INT-100, Pre-UVA): 3.9 mmole/10^8 platelets
- LDH (INT-100, Pre-UVA): 10.3 LDH IU/10^11 platelets
- Platelet counts (INT-100, Pre-UVA): 1481 ×10^3 cells/μL
- Platelet lysis (INT-100, Pre-UVA): 4.30%
- pCO2 at 37° C. (INT-100, Pre-UVA): 101.1 mmHg
- pH at 37° C. (INT-100, Pre-UVA): 6.87
- pO2 at 37° C. (INT-100, Pre-UVA): 98.4 mmHg

From patent US12214092B2, “Systems and methods for treating biological fluids” (Cerus Corporation, priority 2017, dated 2025)
